{
  "source": "paper PMC9515143",
  "about": "“Phosphorylation of Jhd2 by the Ras-cAMP-PKA(Tpk2) pathway regulates histone modifications and autophagy” (Nature Communications, 2022)",
  "key": {"[1]": {"system": "Tpk2-as", "assay": "In vitro kinase assay, Tpk2-as, Jhd2 substrate", "type": "biochemical, budding yeast (Saccharomyces cerevisiae)", "conditions": "25 μM 1NM-PP1, in vitro kinase assay, 30 °C, Western blot", "description": "(§1) 0–300 ng purified Jhd2 was mixed with or without 200 ng TAP purified Tpk2 in 2×kinase reaction buffer (100 mM Tris-HCl pH 7.4, 100 mM MgCl2, 10 mM ATP, 0.2 μM PMSF, 1 mM Na3VO4, 5% glycerol) at 30 °C. Equal aliquots were taken at different time points, and the reaction was quenched by adding 2×SDS-PAGE loading buffer and incubated at 95 °C for 10 min. Boiled samples were resolved on 10% SDS-PAGE and subjected to Western blot analysis."}, "[2]": {"system": "WT Tpk2", "assay": "In vitro kinase assay, WT Tpk2, Jhd2 substrate", "type": "biochemical, budding yeast (Saccharomyces cerevisiae)", "conditions": "25 μM 1NM-PP1, in vitro kinase assay, 30 °C, Western blot", "description": "as §1"}, "[3]": {"system": "Tpk2-as", "assay": "Intracellular H3K4me3 in Tpk2-as mutant with 1NM-PP1", "type": "cell-based, budding yeast (Saccharomyces cerevisiae)", "conditions": "25 μM 1NM-PP1, 0.5 hr, Western blot", "description": "(§2) To examine the effect of glucose on histone modifications, yeast cells were grown in 2% glucose-containing YPD (Yeast Extract Peptone Dextrose) medium until OD600 of 0.7–1.0. Cells were then collected, washed and resuspended in YP medium for 3 hr followed by treatment with different concentrations of glucose for 0.5 hr. For 1NM-PP1 (MCE, HY-13804) treatment, cells were grown in 2% YPD until OD600 of 0.7–1.0. Cells were then treated with 25 μM 1NM-PP1 for 0.5 hr. For FBP and pyruvate treatment, cells were pre-treated with Zymolase (Mpbio, 08320921) to increase the permeability. In brief, cells were grown in YPD medium until OD600 of 0.7–1.0, centrifuged and resuspended in 1 ml SB buffer (100 mM Sorbitol, 20 mM Tris pH 7.4). 10 μl Zymolase was then added and incubated at 30 °C for 15 min. The spheroplasts were washed and cultured in YPD medium containing different concentrations of FBP and pyruvate for 3 hr.\n(§3) Cells were grown in 5 ml YPD or selective medium until OD600 of 0.7–1.0. Cells were harvested and lysed in alkaline lysis buffer (2 M NaOH, 8% 2-mercaptoethanol). After centrifugation, the protein pellet was resuspended in 150 μl 2×SDS-sample buffer. Protein samples were separated by 8–15% SDS-PAGE and transferred to PVDF membrane. […] The protein bands were visualized using the ECL Chemiluminescence Detection Kit (Bio-Rad, 170–5061) and quantified with Image J software (v.1.8.0). […]"}, "[4]": {"system": "Tpk1-as", "assay": "Intracellular H3K4me3 in Tpk1-as mutant with 1NM-PP1", "type": "cell-based, budding yeast (Saccharomyces cerevisiae)", "conditions": "25 μM 1NM-PP1, 0.5 hr, Western blot", "description": "as §2, §3"}, "[5]": {"system": "Tpk3-as", "assay": "Intracellular H3K4me3 in Tpk3-as mutant with 1NM-PP1", "type": "cell-based, budding yeast (Saccharomyces cerevisiae)", "conditions": "25 μM 1NM-PP1, 0.5 hr, Western blot", "description": "as §2, §3"}, "[6]": {"system": "Tpk2-as", "assay": "Intracellular Jhd2 phosphorylation in Tpk2-as mutant with 1NM-PP1", "type": "cell-based, budding yeast (Saccharomyces cerevisiae)", "conditions": "25 μM 1NM-PP1, 0.5 hr, Western blot", "description": "as §2, §3"}, "[7]": {"system": "WT cells", "assay": "Intracellular Jhd2 phosphorylation in WT cells with 1NM-PP1", "type": "cell-based, budding yeast (Saccharomyces cerevisiae)", "conditions": "25 μM 1NM-PP1, 0.5 hr, Western blot", "description": "as §2, §3"}},
  "data": [
    {"smiles": "CC(C)(C)n1nc(Cc2cccc3ccccc23)c2c(N)ncnc21", "note": "[1NM-PP1]", "values": [
      {"measurement": "inhibition of Tpk2-catalyzed Jhd2 phosphorylation in vitro, Tpk2-as", "setting": "[1]", "result": "directly inhibited Tpk2-catalyzed Jhd2 phosphorylation"},
      {"measurement": "Jhd2 phosphorylation in vitro, WT Tpk2", "setting": "[2]", "result": "Jhd2 was phosphorylated by WT Tpk2 but not Tpk2-as mutant when treated with 25 μM 1NM-PP1"},
      {"measurement": "intracellular H3K4me3, Tpk2-as mutant", "setting": "[3]", "result": "significantly reduced by 1NM-PP1 in Tpk2-as mutant"},
      {"measurement": "intracellular H3K4me3, Tpk1-as mutant", "setting": "[4]", "result": "significantly reduced by 1NM-PP1 in Tpk2-as mutant but not Tpk1-as and Tpk3-as mutants"},
      {"measurement": "intracellular H3K4me3, Tpk3-as mutant", "setting": "[5]", "result": "significantly reduced by 1NM-PP1 in Tpk2-as mutant but not Tpk1-as and Tpk3-as mutants"},
      {"measurement": "intracellular Jhd2 phosphorylation, Tpk2-as mutant", "setting": "[6]", "result": "significantly reduced in Tpk2-as mutant"},
      {"measurement": "intracellular Jhd2 phosphorylation, WT cells", "setting": "[7]", "result": "significantly reduced in Tpk2-as mutant but not WT cells"}
    ]}
  ]
}
